Molecular target: GSK3β (Homo sapiens, UniProt P49841)
Assay: Inhibitory activity against GSK3β (33P-ATP phosphorylation of prephosphorylated GS1 peptide, two protocols)
Assay type: biochemical
Details: GS1 peptide / 33P-ATP filter assay; which of the two protocols was used is not stated
Description: Inhibitory activity of the medicament of the present invention against GSK3β: Two different protocols can be used. In a first protocol: 7.5 μM of prephosphorylated GS1 peptide and 10 μM ATP (containing 300,000 cpm of 33P-ATP) were incubated in 25 mM Tris-HCl, pH 7.5, 0.6 mM DTT 6 mM MgCl2, 0.6 mM EGTA, 0.05 mg/ml BSA buffer for 1 hour at room temperature in the presence of GSK3beta (total reaction volume: 100 microliters). In a second protocol: 4.1 μM of prephosphorylated GSI peptide and 42 μM ATP (containing 260,000 cpm 33P-ATP) were incubated in 80 mM Mes-NaOH, pH 6.5, 1 mM Mg acetate, 0.5 mM EGTA, 5 mM 2-mercaptoethanol, 0.02% Tween 20,10% glycerol buffer for 2 hours at room temperature in the presence of GSK3beta. Inhibitors were solubilised in DMSO (final solvent concentration in the reaction medium, 1%). The reaction was stopped with 100 microliters of a solution made of 25 g polyphosphoric acid (85% P2O5), 126 ml 85% H3PO4, H2O to 500 ml and then diluted to 1:100 before use. An aliquot of the reaction mixture was then transferred to Whatman P81 cation exchange filters and rinsed with the solution described above. Incorporated 33P radioactivity was determined by liquid scintillation spectrometry. The phosphorylated GS-1 peptide had the following sequence: NH2-[…](P)EDEE-COOH. […]

Sequence of GSK3β (P49841 whole entry, species assumed): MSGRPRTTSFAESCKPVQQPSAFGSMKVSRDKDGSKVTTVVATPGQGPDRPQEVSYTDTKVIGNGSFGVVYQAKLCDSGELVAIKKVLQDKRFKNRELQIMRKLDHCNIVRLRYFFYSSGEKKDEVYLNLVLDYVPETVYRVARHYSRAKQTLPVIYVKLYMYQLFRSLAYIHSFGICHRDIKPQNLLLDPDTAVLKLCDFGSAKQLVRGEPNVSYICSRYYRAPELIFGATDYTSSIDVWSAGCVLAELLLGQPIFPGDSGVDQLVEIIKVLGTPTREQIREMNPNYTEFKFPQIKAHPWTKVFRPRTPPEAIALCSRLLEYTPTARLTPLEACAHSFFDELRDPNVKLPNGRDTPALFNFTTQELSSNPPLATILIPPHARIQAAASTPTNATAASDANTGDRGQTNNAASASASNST

| Compound | IC50 |
| --- | --- |
| CN1CCC2(CC1)CCn1c(nc(-c3ccncc3)cc1=O)N2CC(=O)c1ccccc1 [compound No. 4 of table 1, 1-Methyl-1′-(2-oxo-2-phenylethyl)-8′-(pyridin-4-yl)-3′,4′-dihydrospiro[piperidine-4,2′-pyrimido[1,2-a]pyrimidin]-6′(1′H)-one] | 7 nM |
| CN1CCC2(CCn3c(nc(-c4ccncc4)cc3=O)N2CC(=O)c2ccccc2)C1 (centres unmarked) [compound No. 4 of table 2, 1′-Methyl-1-(2-oxo-2-phenylethyl)-8-(pyridin-4-yl)-3,4-dihydrospiro (pyrimido[1,2-a]pyrimidine-2,3′-pyrrolidin]-6(1H)-one] | 6 nM |
